Data reported in patent US4670255A, “Hair tonic composition” (priority 1983, dated 1987).

These compounds were tested on testosterone 5α-reductase (assay: Determination of 5α-reductase inhibitory activity (labelled testosterone conversion)).
Format: biochemical, rats
Experimental: Prostate gland cells of rats were crushed and a specimen of testosterone 5α-reductase was then prepared by separating microsome from the crushed liquid mixture. The conversion of testosterone to 5α-dihydrotestosterone by the use of the above-prepared enzyme specimen was monitored by radioisotopically labelled testosterone. The reaction mixture was extracted with ethyl acetate and the extract was developed twice by silica gel thin layer chromatography (solvent system, dichloromethane:cyclohexane:acetone=15:4:1). The amount of 5α-dihydrotestosterone were determined from the intensities of the radioactivity.
A 30 μl amount of a 0.05M phosphate buffer (pH=6.6) containing 0.1% of BSA (bovine serum albumin), 10 μl of an enzyme specimen, 8.5 pmol of labelled testosterone, 50 nmol of a reduced form of NADP (nicotinamide adenine dinucleotide phosphate), and 10 μl of a test sample were mixed (total amount=50 μl). The mixture was allowed to react at a temperature of 25° C. for 60 minutes.
After the completion of the reaction, the reaction mixture was extracted with ethyl acetate by adding 50 μl of ethyl acetate to the reaction mixture. The extract was developed in the same manner as mentioned above and the intensity of the radioisotope was measured by using a scintillation counter.
The above-mentioned determination was applied to the samples having various concentrations. The 5α-reductase inhibitory activity was obtained as a inhibitory rate (%) or a 50% inhibitory concentration.
In the case of CCCCCCCCCCCCCCCC(=O)O [palmitic acid], the “5α-reductase inhibitory activity (in words)” value is reported as “especially strong”.
For CCCCCC/C=C\CCCCCCCC(=O)O [palmitoleic acid], the “5α-reductase inhibitory activity (in words)” value was “especially strong”.
In the case of CCCCCCCC/C=C\CCCCCCCC(=O)O [oleic acid], the “5α-reductase inhibitory activity (in words)” value is reported as “especially strong”.
CCCCC/C=C\C/C=C\CCCCCCCC(=O)O [linolic acid] was tested, and the “5α-reductase inhibitory activity (in words)” value was “especially strong”.
